Measurements published in US20120122727A1, “IN VITRO METHOD FOR PREDICTING WHETHER A COMPOUND IS GENOTOXIC IN VIVO” (priority 2009, published 2012).

Key:
[1] = test system: primary mouse hepatocytes; experiment: Gene expression (Affymetrix Mouse Genome 430 2.0) in primary mouse hepatocytes, true vs false GTX, 24 h and 48 h
[2] = test system: primary mouse hepatocytes; experiment: Gene expression in primary mouse hepatocytes, GTX vs non-GTX (four-gene classifier, 24 h)

Mitomycin C [MitC]
Gene expression NM_013642 average [1]: −0.7845
Gene expression NM_013738 average [1]: 2.749
Gene expression NM_013929 average [1]: 2.481
Gene expression NM_018881 average [1]: 2.279
Gene expression NM_019738 average [1]: −2.772
Gene expression NM_030697 average [1]: 3.958
Gene expression NM_053122 average [1]: −4.049
Gene expression NM_134147 average [1]: −2.8471
Gene expression NM_134188 average [1]: 0.4786
Gene expression X62701 average [1]: −1.3159
Gene expression data AF000969 (Cadps2) [1]: −2.406
Gene expression data AF022072 (Grb10) [1]: −3.6802
Gene expression data AF065917 (Lif) [1]: 1.033
Gene expression data AF297615 (Ggta1) [1]: 2.358
Gene expression data AI594683 (Dmn) [1]: 3.671
Gene expression data AI596632 (Ptprg /// LOC632664) [1]: −4.795
Gene expression data AI987929 (Ndrg1) [1]: −3.324
Gene expression data AK004419 (Fbxl17) [1]: −4.0931
Gene expression data AK005731 (1700007K13Rik) [1]: 5.7645
Gene expression data AK007766 (1810044A24Rik) [1]: −2.227
Gene expression data AK007854 (1810053B23Rik) [1]: 2.898
Gene expression data AK009736 (Gpr137b /// LOC664862 /// LOC673335) [1]: −1.056
Gene expression data AK010447 (Smyd3) [1]: −1.439
Gene expression data AK014608 (4632434l11Rik) [1]: 2.3711
Gene expression data AK019979 (2610528E23Rik) [1]: −3.317
Gene expression data AV095209 (Mthfd1l) [1]: −2.454
Gene expression data AV141095 (1110033M05Rik) [1]: −2.287
Gene expression data AV173571 (1700106N22Rik) [1]: −2.287
Gene expression data AV219418 (Ldhb) [1]: 2.873
Gene expression data AV223474 (Zdhhc14) [1]: −2.283
Gene expression data AV298304 (Homez) [1]: 1.9706
Gene expression data AV327248 (Zfp365 /// LOC674611) [1]: 4.258
Gene expression data AV377066 (9130221J18Rik) [1]: 2.462
Gene expression data AW240761 (Tbc1d5) [1]: −2.643
Gene expression data AW543460 (Pard3) [1]: −3.164
Gene expression data AW543723 [1]: 2.3145
Gene expression data AW986246 (Maoa) [1]: −0.2119
Gene expression data BB027848 (4732466D17Rik) [1]: 2.18
Gene expression data BB043558 (9230114K14Rik) [1]: 2.308
Gene expression data BB275142 (AW456874) [1]: 1.944
Gene expression data BB308836 (Ppm1l) [1]: −1.64
Gene expression data BB318221 (Zdhhc14) [1]: −2.706
Gene expression data BB463610 (4632434l11Rik) [1]: 2.535
Gene expression data BB526605 (Mipol1) [1]: −2.035
Gene expression data BB770528 (Rai2) [1]: 2.603
Gene expression data BB821363 (Scfd2) [1]: −2.485
Gene expression data BC004827 (Psat1) [1]: −2.4733
Gene expression data BC008626 (Icam1) [1]: 2.3005
Gene expression data BC010462 (BC010462) [1]: 1.163
Gene expression data BC012247 (Dcxr) [1]: 2.094
Gene expression data BC012260 (Psmf1) [1]: 2.237
Gene expression data BC015270 (Hist2h3c2) [1]: 0.6339
Gene expression data BC016073 (Cdkal1) [1]: −1.963
Gene expression data BC016265 (Ube2e2) [1]: −2.202
Gene expression data BC019882 (Acaa1b) [1]: 3.446
Gene expression data BC025501 (Aaas) [1]: 2.023
Gene expression data BC025837 (Sbk1) [1]: 1.652
Gene expression data BC025915 (Cova1) [1]: −1.619
Gene expression data BC026422 (Tgm1) [1]: 2.651
Gene expression data BF719766 (Thyn1) [1]: 2.045
Gene expression data BG065754 (Ccng1) [1]: 1.179
Gene expression data BG066903 (Kif16b) [1]: −1.047
Gene expression data BG069873 (Gnb1l) [1]: 2.175
Gene expression data BG070887 (Gtdc1) [1]: −2.356
Gene expression data BG076151 (Ppm1d) [1]: 2.238
Gene expression data BG261907 (Large) [1]: −3.876
Gene expression data BI651416 (Cdc42bpg) [1]: 2.482
Gene expression data BI660702 (Ell3) [1]: 3.742
Gene expression data BM198879 (Ercc5) [1]: 2.012
Gene expression data BM230508 (A030007D23Rik) [1]: 2.556
Gene expression data NM_007987 (Fas) [1]: 2.6645
Gene expression data NM_008522 (Ltf) [1]: 3.9908
Gene expression data NM_008576 (Abcc1) [1]: −1.312
Gene expression data NM_011176 (St14) [1]: 2.078
Gene expression data NM_011316 (Saa4) [1]: 2.611
Gene expression data NM_012006 (Acot1) [1]: 3.959
Gene expression data NM_013866 (Zfp385) [1]: 2.3
Gene expression data NM_018770 (Igsf4a) [1]: −2.054
Gene expression data NM_021451 (Pmaip1) [1]: 2.681
Gene expression data NM_025770 (Atg10) [1]: −1.329
Gene expression data NM_028803 (Gbe1) [1]: −1.8898
Gene expression data NM_030697 (Ankrd47) [1]: 3.874
Gene expression data NM_053168 (Trim11) [1]: 1.4821
Gene expression data NM_134188 (Acot2) [1]: −0.06593
Gene expression data Y15910 (Diap2) [1]: −2.813
score 1700007K13RIK [2]: 1
score DDIT4L [2]: 1
score GAS2L3 [2]: 1
score SPC25 [2]: 1
